# Like-named read-outs stand apart in the source and are kept apart here.
# Columns and labels:
# Format in all cases: biochemical
# [1] = test system: rat diaphorase
# [2] = test system: rat diaphorase; remark: listed apart in the source
# [3] = test system: Clostridium diaphorase
# [4] = test system: rat diaphorase; settings: 20 μM compound, 40 min
# [5] = test system: rat diaphorase; settings: 20 μM compound
# [6] = test system: rat diaphorase; remark: listed apart in the source
# [7] = NADH no, diaphorase yes (5 u/ml rat)
# [8] = NADH yes (10 μM), diaphorase no
# [9] = NADH yes (10 μM), diaphorase yes (5 u/ml rat), 20 min
# [10] = reaction time 0 min, 20 μM compound, 10 μM NADH
# [11] = ~1 min after LDR with 500 μM menadione, 20 μM compound, 10 μM NADH
# [12] = ~1 min after LDR, 20 μM compound, 10 μM NADH
# [13] = ~6 min after LDR with 500 μM menadione, 20 μM compound, 10 μM NADH
# [14] = ~6 min after LDR, 20 μM compound, 10 μM NADH
# [15] = 20 μM compound, 10 μM NADH, 5 u/ml rat diaphorase, 70 min
# [16] = 20 μM compound, no NADH, 5 u/ml rat diaphorase, 70 min
# [17] = signal with NADH / without NADH, rat diaphorase
# [18] = 20 μM compound, 10 μM NADH, 0.5 u/ml Clostridium diaphorase, 70 min
# [19] = 20 μM compound, no NADH, 0.5 u/ml Clostridium diaphorase, 70 min
# [20] = signal with NADH / without NADH, Clostridium diaphorase
smiles,measurement,setting,value
"CC1=C(C)C(=O)C(C(C)(C)CC(=O)N(C)c2ccc(COC(=O)Nc3ccc4nc(C5=N[C@@H](C(=O)O)CS5)sc4c3)cc2)=C(C)C1=O [PBI 4550, Quinone trimethyllock-N-methyl-luciferin carbamate]",First Reading With menadione,[1],1786 RLU
same,First Reading Without menadione,[1],16495 RLU
same,Last Reading With menadione,[1],2393 RLU
same,Last Reading Without menadione,[1],100603 RLU
same,Avg RLU With NADH,[2],62987 RLU
same,Avg RLU Without NADH,[2],2337 RLU
same,S/B,[2],27
same,Avg RLU With NADH,[3],25644 RLU
same,Avg RLU Without NADH,[3],2597 RLU
same,S/B,[3],10
"CC1=C(C)C(=O)C(C(C)(C)CC(=O)N(C)CCN(C)C(=O)Oc2ccc3nc(C4=N[C@@H](C(=O)O)CS4)sc3c2)=C(C)C1=O [PBI 4312, quinone trimethyllock-C2-diamine luciferin]",Avg RLU,[4]; NADH 0 μM,5410 RLU
same,Avg RLU,[4]; NADH 0.006 μM,6447 RLU
same,Avg RLU,[4]; NADH 0.012 μM,7075 RLU
same,Avg RLU,[4]; NADH 0.024 μM,8864 RLU
same,Avg RLU,[4]; NADH 0.049 μM,11190 RLU
same,Avg RLU,[4]; NADH 0.098 μM,20126 RLU
same,Avg RLU,[4]; NADH 0.195 μM,27871 RLU
same,Avg RLU,[4]; NADH 0.39 μM,43659 RLU
same,Avg RLU,[4]; NADH 0.78 μM,33801 RLU
same,Avg RLU,[4]; NADH 1.56 μM,60043 RLU
same,Avg RLU,[4]; NADH 3.125 μM,119311 RLU
same,Avg RLU,[4]; NADH 6.25 μM,235674 RLU
same,Avg RLU,[4]; NADH 12.5 μM,465875 RLU
same,Avg RLU,[4]; NADH 25 μM,608014 RLU
same,Avg RLU,[4]; NADH 50 μM,687602 RLU
same,Avg RLU,[4]; NADH 100 μM,663944 RLU
same,Avg RLU,"[5]; NADH no, diaphorase no",4262 RLU
same,Avg RLU,[5]; [7],3910 RLU
same,Avg RLU,[5]; [8],3918 RLU
same,Avg RLU,[5]; [9],197017 RLU
same,Avg RLU,[6]; [10],7809 RLU
same,Avg RLU,[6]; reaction time 2 min,150745 RLU
same,Avg RLU,[6]; reaction time 5 min,206822 RLU
same,Avg RLU,[6]; reaction time 10 min,305968 RLU
same,Avg RLU,[6]; reaction time 15 min,366592 RLU
same,Avg RLU,[6]; reaction time 25 min,499283 RLU
same,Avg RLU,[6]; reaction time 30 min,529063 RLU
same,Avg RLU,[6]; reaction time 40 min,544475 RLU
same,Avg RLU,[6]; reaction time 50 min,599165 RLU
same,Avg RLU,[6]; reaction time 60 min,571954 RLU
same,First Reading With menadione,[1]; [11],3527 RLU
same,First Reading Without menadione,[1]; [12],5900 RLU
same,Last Reading With menadione,[1]; [13],5062 RLU
same,Last Reading Without menadione,[1]; [14],39855 RLU
same,Avg RLU With NADH,[2]; [15],120633 RLU
same,Avg RLU Without NADH,[2]; [16],4981 RLU
same,S/B,[2]; [17],24
same,Avg RLU With NADH,[3]; [18],29068 RLU
same,Avg RLU Without NADH,[3]; [19],5311 RLU
same,S/B,[3]; [20],5.5
"CC1=C(C)C(=O)C(C(C)(C)CC(=O)N(C)CC(C)(C)CN(C)C(=O)Oc2ccc3nc(C4=N[C@@H](C(=O)O)CS4)sc3c2)=C(C)C1=O [PBI 4565, Quinone trimethyllock-N,N′,2,2-tetramethylpropanediamine carbamate luciferin]",Avg RLU,[4]; NADH 0 μM,967 RLU
same,Avg RLU,[4]; NADH 0.006 μM,1120 RLU
same,Avg RLU,[4]; NADH 0.012 μM,1412 RLU
same,Avg RLU,[4]; NADH 0.024 μM,2300 RLU
same,Avg RLU,[4]; NADH 0.049 μM,3065 RLU
same,Avg RLU,[4]; NADH 0.098 μM,4931 RLU
same,Avg RLU,[4]; NADH 0.195 μM,8863 RLU
same,Avg RLU,[4]; NADH 0.39 μM,16200 RLU
same,Avg RLU,[4]; NADH 0.78 μM,13828 RLU
same,Avg RLU,[4]; NADH 1.56 μM,29258 RLU
same,Avg RLU,[4]; NADH 3.125 μM,63621 RLU
same,Avg RLU,[4]; NADH 6.25 μM,128719 RLU
same,Avg RLU,[4]; NADH 12.5 μM,258360 RLU
same,Avg RLU,[4]; NADH 25 μM,294331 RLU
same,Avg RLU,[4]; NADH 50 μM,287306 RLU
same,Avg RLU,[4]; NADH 100 μM,306242 RLU
same,Avg RLU,"[5]; NADH no, diaphorase no",801 RLU
same,Avg RLU,[5]; [7],860 RLU
same,Avg RLU,[5]; [8],891 RLU
same,Avg RLU,[5]; [9],98349 RLU
same,Avg RLU,[6]; [10],1294 RLU
same,Avg RLU,[6]; reaction time 2 min,41615 RLU
same,Avg RLU,[6]; reaction time 5 min,69945 RLU
same,Avg RLU,[6]; reaction time 10 min,117067 RLU
same,Avg RLU,[6]; reaction time 15 min,154427 RLU
same,Avg RLU,[6]; reaction time 25 min,252212 RLU
same,Avg RLU,[6]; reaction time 30 min,262123 RLU
same,Avg RLU,[6]; reaction time 40 min,278567 RLU
same,Avg RLU,[6]; reaction time 50 min,328037 RLU
same,Avg RLU,[6]; reaction time 60 min,330433 RLU
same,First Reading With menadione,[1]; [11],324 RLU
same,First Reading Without menadione,[1]; [12],564 RLU
same,Last Reading With menadione,[1]; [13],446 RLU
same,Last Reading Without menadione,[1]; [14],4407 RLU
same,Avg RLU With NADH,[2]; [15],48903 RLU
same,Avg RLU Without NADH,[2]; [16],479 RLU
same,S/B,[2]; [17],102
same,Avg RLU With NADH,[3]; [18],18559 RLU
same,Avg RLU Without NADH,[3]; [19],646 RLU
same,S/B,[3]; [20],29
